A short description of the data set: Storage stability of the gel formulation containing calcipotriol and betamethasone dipropionate. The class given is physicochemical. To be noted: gel formulation of Example 1; for BDP Kvant.: content of BDP; for Calcipotri. Kvant.: content of calcipotriol, in µg/g. As for the experimental part:
To produce 1 kg of gel formulation, 30 g of hydrogenated castor oil was melted together with 749 g of heptamethylnonane at 85-90° C. and cooled with homogenisation to about 60° C. The mixture was then cooled to 25-30° C. with stirring. 643 mg of betamethasone dipropionate was suspended in 50 g of heptamethylnonane and added to the homogenised gel base. 52.2 mg of calcipotriol hydrate or 50 mg of calcipotriol was dissolved in 170 g polyoxypropylene-15-stearyl ether and added to the mixture of the other ingredients, and the formulation was homogenised to ensure a homogenous distribution of the active components. The resulting gel formulation was stable when stored at 40° C. for 3 months, indicating a shelf life of at least 2 years at room temperature.

As for `CCC(=O)OCC(=O)[C@@]1(OC(=O)CC)[C@@H](C)C[C@H]2[C@@H]3CCC4=CC(=O)C=C[C@]4(C)[C@@]3(F)[C@@H](O)C[C@@]21C` [BDP, betamethasone dipropionate], the “% FOS” value by setting is: (40° C. 1 month) 0.91%; (40° C. 3 months) 1.02%; (Start 5°C./1 month) 0.23%. In addition, the BDP Kvant. runs as follows: (40° C. 1 month) 0.634 mg/g; (40° C. 3 months) 0.642 mg/g.

Regarding `C=C1/C(=C\C=C2/CCC[C@]3(C)[C@@H]([C@H](C)/C=C/[C@@H](O)C4CC4)CC[C@@H]23)C[C@@H](O)C[C@@H]1O` [Calcipotri., calcipotriol], the “% Epi” value was 0.66% (40° C. 1 month), 0.8% (40° C. 3 months) and 0.62% (Start 5°C./1 month). The “% FOS” value reads like this: (40° C. 1 month) 1.52%; (40° C. 3 months) 1.33%; (Start 5°C./1 month) 1.59%. For the same compound, the “Calcipotri. Kvant.” value (40° C. 1 month) is listed as 50.16 and the “Calcipotri. Kvant.” value (40° C. 3 months) is on record as 50.0.

The record behind these values is patent publication US20020111336A1, “Topical composition” (priority 2000, published 2002).
